# Source: patent US20250230193A1, “CYCLIC COMPOUND HAVING SELECTIVE KRAS INHIBITORY EFFECT ON HRAS AND NRAS” (CHUGAI SEIYAKU KABUSHIKI KAISHA, priority 2022, published 2025)
# *1 amine or outer side, *2 acyl side, *3 side chain or, on linkers, in order; H or OH if unused. Where a SMILES comes first, the peptide text is derived from it. Bridges are numbered along the chain shown (N, C = ends). [ ]: non-standard residue; d: D form. The star is where a group is joined. hPhe(3,5-F2-4-CF3) = N[C@@H](CCc1cc(F)c(C(F)(F)F)c(F)c1)C(=O)O; hPhe(3-Cl-4-CF3) = N[C@@H](CCc1ccc(C(F)(F)F)c(Cl)c1)C(=O)O; NPrPhe(4-CF3) = CCCN[C@@H](Cc1ccc(C(F)(F)F)cc1)C(=O)O; NMeGly(cPent) = CN[C@H](C(=O)O)C1CCCC1; X13 = CCC[C@](C)(N[*:1])C(=O)[*:2]; αMeCha = C[C@](N)(CC1CCCCC1)C(=O)O; αMeI = CC[C@H](C)[C@](C)(N)C(=O)O; Gly(N-propargyl) = C#CCNCC(=O)O; X15 = O=C(CN(CC(F)F)[*:1])[*:2]; NMeD = CN[C@@H](CC(=O)O)C(=O)O; NMeL = CN[C@@H](CC(C)C)C(=O)O; αMeL = CC(C)C[C@](C)(N)C(=O)O; X51 = O=C(CN(CCF)[*:1])[*:2]; αMeV = CC(C)[C@](C)(N)C(=O)O; αMeS = C[C@](N)(CO)C(=O)O; Iva = CC[C@](C)(N)C(=O)O; Morpholide = C1CN(*)CCO1; NAllylGly = C=CCNCC(=O)O; Ac5c = NC1(C(=O)O)CCCC1; Sar = CNCC(=O)O
# Assays:
# [1] = target: GDP-bound HRAS wild-type protein (Homo sapiens, UniProt P01112); experiment: Binding to HRAS by surface plasmon resonance (SPR), Single Cycle Kinetics; details: KD ratio HRAS/KRAS, SPR
# [2] = target: GDP-bound NRAS wild-type protein (Homo sapiens, UniProt P01111); experiment: Binding to NRAS by surface plasmon resonance (SPR), Single Cycle Kinetics; details: KD ratio NRAS/KRAS, SPR
# Chain of GDP-bound NRAS wild-type protein (P01111 whole entry): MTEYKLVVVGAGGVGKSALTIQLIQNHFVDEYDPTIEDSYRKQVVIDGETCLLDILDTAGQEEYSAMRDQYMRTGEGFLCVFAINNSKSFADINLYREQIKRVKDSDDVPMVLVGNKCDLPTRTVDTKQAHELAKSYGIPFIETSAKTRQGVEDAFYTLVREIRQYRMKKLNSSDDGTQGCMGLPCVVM
# Chain of GDP-bound HRAS wild-type protein (P01112 whole entry): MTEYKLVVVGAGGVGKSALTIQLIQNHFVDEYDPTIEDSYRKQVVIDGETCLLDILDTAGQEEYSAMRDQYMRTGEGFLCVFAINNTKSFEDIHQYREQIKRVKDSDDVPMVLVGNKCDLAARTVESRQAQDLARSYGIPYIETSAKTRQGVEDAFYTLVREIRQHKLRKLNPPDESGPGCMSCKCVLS
SMILES,HRAS/KRAS (ratio of KD value with respect to GDP-bound HRAS wild-type protein to KD value with respect to KRAS) [1],NRAS/KRAS (ratio of KD value with respect to GDP-bound NRAS wild-type protein to KD value with respect to KRAS) [2]
C=CCN1CC(=O)N(C)CC(=O)N(CCC)[C@@H](Cc2ccc(C(F)(F)F)cc2)C(=O)N(C)CC(=O)N[C@@H](CCc2ccc(C(F)(F)F)c(Cl)c2)C(=O)N2CCC[C@H]2C(=O)NC2(CCCC2)C(=O)N(C)[C@@H](C2CCCC2)C(=O)N(C)[C@H](C(=O)N2CCOCC2)CC(=O)N(C)[C@@H](CC(C)C)C(=O)N[C@@H]([C@@H](C)CC)C1=O [PP0749] ([NMeL]I[NAllylGly][Sar][NPrPhe(4-CF3)][Sar][hPhe(3-Cl-4-CF3)]P[Ac5c][NMeGly(cPent)][NMeD]-Morpholide; lactam N-11),C (A compound having a KD ratio of 0.1 or more and less than 3 is denoted as C),B (a compound having 3 or more and less than 10 is denoted as B)
C#CCN1CC(=O)N(C)CC(=O)N(CCC)[C@@H](Cc2ccc(C(F)(F)F)cc2)C(=O)N(C)CC(=O)N[C@@H](CCc2ccc(C(F)(F)F)c(Cl)c2)C(=O)N2CCC[C@H]2C(=O)NC2(CCCC2)C(=O)N(C)[C@@H](C2CCCC2)C(=O)N(C)[C@H](C(=O)N2CCOCC2)CC(=O)N(C)[C@@H](CC(C)C)C(=O)N[C@@H]([C@@H](C)CC)C1=O [PP0750] ([NMeL]I[Gly(N-propargyl)][Sar][NPrPhe(4-CF3)][Sar][hPhe(3-Cl-4-CF3)]P[Ac5c][NMeGly(cPent)][NMeD]-Morpholide; lactam N-11),C (A compound having a KD ratio of 0.1 or more and less than 3 is denoted as C),B (a compound having 3 or more and less than 10 is denoted as B)
CCCN1C(=O)CN(C)C(=O)CN(CCF)C(=O)[C@H]([C@@H](C)CC)NC(=O)[C@H](CC(C)C)N(C)C(=O)C[C@@H](C(=O)N2CCOCC2)N(C)C(=O)[C@H](C2CCCC2)N(C)C(=O)C2(CCCC2)NC(=O)[C@@H]2CCCN2C(=O)[C@H](CCc2ccc(C(F)(F)F)c(Cl)c2)NC(=O)CN(C)C(=O)[C@@H]1Cc1ccc(C(F)(F)F)cc1 [PP0751] ([NMeL]I[X51][Sar][NPrPhe(4-CF3)][Sar][hPhe(3-Cl-4-CF3)]P[Ac5c][NMeGly(cPent)][NMeD]-Morpholide; lactam N-11),C (A compound having a KD ratio of 0.1 or more and less than 3 is denoted as C),B (a compound having 3 or more and less than 10 is denoted as B)
CCCN1C(=O)CN(C)C(=O)CN(CC(F)F)C(=O)[C@H]([C@@H](C)CC)NC(=O)[C@H](CC(C)C)N(C)C(=O)C[C@@H](C(=O)N2CCOCC2)N(C)C(=O)[C@H](C2CCCC2)N(C)C(=O)C2(CCCC2)NC(=O)[C@@H]2CCCN2C(=O)[C@H](CCc2ccc(C(F)(F)F)c(Cl)c2)NC(=O)CN(C)C(=O)[C@@H]1Cc1ccc(C(F)(F)F)cc1 [PP0752] ([NMeL]I[X15][Sar][NPrPhe(4-CF3)][Sar][hPhe(3-Cl-4-CF3)]P[Ac5c][NMeGly(cPent)][NMeD]-Morpholide; lactam N-11),B (a compound having 3 or more and less than 10 is denoted as B),B (a compound having 3 or more and less than 10 is denoted as B)
"CCCN1C(=O)CN(C)C(=O)CN(C)C(=O)[C@H]([C@@H](C)CC)NC(=O)[C@H](CC(C)C)N(C)C(=O)C[C@@H](C(=O)N2CCOCC2)N(C)C(=O)[C@H](C2CCCC2)N(C)C(=O)C2(CCCC2)NC(=O)[C@@H]2CCCN2C(=O)[C@H](CCc2cc(F)c(C(F)(F)F)c(F)c2)NC(=O)CN(C)C(=O)[C@@H]1Cc1ccc(C(F)(F)F)cc1 [PP0753] ([NMeL]I[Sar][Sar][NPrPhe(4-CF3)][Sar][hPhe(3,5-F2-4-CF3)]P[Ac5c][NMeGly(cPent)][NMeD]-Morpholide; lactam N-11)",C (A compound having a KD ratio of 0.1 or more and less than 3 is denoted as C),B (a compound having 3 or more and less than 10 is denoted as B)
"CCCN1C(=O)CN(C)C(=O)CN(C)C(=O)[C@H]([C@@H](C)CC)NC(=O)[C@H](CC(C)C)N(C)C(=O)C[C@@H](C(=O)N2CCOCC2)N(C)C(=O)[C@H](C2CCCC2)N(C)C(=O)[C@](C)(CC)NC(=O)[C@@H]2CCCN2C(=O)[C@H](CCc2cc(F)c(C(F)(F)F)c(F)c2)NC(=O)CN(C)C(=O)[C@@H]1Cc1ccc(C(F)(F)F)cc1 [PP0754] ([NMeL]I[Sar][Sar][NPrPhe(4-CF3)][Sar][hPhe(3,5-F2-4-CF3)]P[Iva][NMeGly(cPent)][NMeD]-Morpholide; lactam N-11)",C (A compound having a KD ratio of 0.1 or more and less than 3 is denoted as C),B (a compound having 3 or more and less than 10 is denoted as B)
"CCCN1C(=O)CN(C)C(=O)CN(C)C(=O)[C@H]([C@@H](C)CC)NC(=O)[C@H](CC(C)C)N(C)C(=O)C[C@@H](C(=O)N2CCOCC2)N(C)C(=O)[C@H](C2CCCC2)N(C)C(=O)[C@](C)(C(C)C)NC(=O)[C@@H]2CCCN2C(=O)[C@H](CCc2cc(F)c(C(F)(F)F)c(F)c2)NC(=O)CN(C)C(=O)[C@@H]1Cc1ccc(C(F)(F)F)cc1 [PP0756] ([NMeL]I[Sar][Sar][NPrPhe(4-CF3)][Sar][hPhe(3,5-F2-4-CF3)]P[αMeV][NMeGly(cPent)][NMeD]-Morpholide; lactam N-11)",B (a compound having 3 or more and less than 10 is denoted as B),B (a compound having 3 or more and less than 10 is denoted as B)
"CCCN1C(=O)CN(C)C(=O)CN(C)C(=O)[C@H]([C@@H](C)CC)NC(=O)[C@H](CC(C)C)N(C)C(=O)C[C@@H](C(=O)N2CCOCC2)N(C)C(=O)[C@H](C2CCCC2)N(C)C(=O)[C@](C)([C@@H](C)CC)NC(=O)[C@@H]2CCCN2C(=O)[C@H](CCc2cc(F)c(C(F)(F)F)c(F)c2)NC(=O)CN(C)C(=O)[C@@H]1Cc1ccc(C(F)(F)F)cc1 [PP0757] ([NMeL]I[Sar][Sar][NPrPhe(4-CF3)][Sar][hPhe(3,5-F2-4-CF3)]P[αMeI][NMeGly(cPent)][NMeD]-Morpholide; lactam N-11)",C (A compound having a KD ratio of 0.1 or more and less than 3 is denoted as C),B (a compound having 3 or more and less than 10 is denoted as B)
"CCCN1C(=O)CN(C)C(=O)CN(C)C(=O)[C@H]([C@@H](C)CC)NC(=O)[C@H](CC(C)C)N(C)C(=O)C[C@@H](C(=O)N2CCOCC2)N(C)C(=O)[C@H](C2CCCC2)N(C)C(=O)[C@](C)(CCC)NC(=O)[C@@H]2CCCN2C(=O)[C@H](CCc2cc(F)c(C(F)(F)F)c(F)c2)NC(=O)CN(C)C(=O)[C@@H]1Cc1ccc(C(F)(F)F)cc1 [PP0758] ([NMeL]I[Sar][Sar][NPrPhe(4-CF3)][Sar][hPhe(3,5-F2-4-CF3)]P[X13][NMeGly(cPent)][NMeD]-Morpholide; lactam N-11)",C (A compound having a KD ratio of 0.1 or more and less than 3 is denoted as C),B (a compound having 3 or more and less than 10 is denoted as B)
"CCCN1C(=O)CN(C)C(=O)CN(C)C(=O)[C@H]([C@@H](C)CC)NC(=O)[C@H](CC(C)C)N(C)C(=O)C[C@@H](C(=O)N2CCOCC2)N(C)C(=O)[C@H](C2CCCC2)N(C)C(=O)[C@](C)(CC(C)C)NC(=O)[C@@H]2CCCN2C(=O)[C@H](CCc2cc(F)c(C(F)(F)F)c(F)c2)NC(=O)CN(C)C(=O)[C@@H]1Cc1ccc(C(F)(F)F)cc1 [PP0759] ([NMeL]I[Sar][Sar][NPrPhe(4-CF3)][Sar][hPhe(3,5-F2-4-CF3)]P[αMeL][NMeGly(cPent)][NMeD]-Morpholide; lactam N-11)",B (a compound having 3 or more and less than 10 is denoted as B),B (a compound having 3 or more and less than 10 is denoted as B)
"CCCN1C(=O)CN(C)C(=O)CN(C)C(=O)[C@H]([C@@H](C)CC)NC(=O)[C@H](CC(C)C)N(C)C(=O)C[C@@H](C(=O)N2CCOCC2)N(C)C(=O)[C@H](C2CCCC2)N(C)C(=O)[C@](C)(CC2CCCCC2)NC(=O)[C@@H]2CCCN2C(=O)[C@H](CCc2cc(F)c(C(F)(F)F)c(F)c2)NC(=O)CN(C)C(=O)[C@@H]1Cc1ccc(C(F)(F)F)cc1 [PP0760] ([NMeL]I[Sar][Sar][NPrPhe(4-CF3)][Sar][hPhe(3,5-F2-4-CF3)]P[αMeCha][NMeGly(cPent)][NMeD]-Morpholide; lactam N-11)",C (A compound having a KD ratio of 0.1 or more and less than 3 is denoted as C),B (a compound having 3 or more and less than 10 is denoted as B)
"CCCN1C(=O)CN(C)C(=O)CN(C)C(=O)[C@H]([C@@H](C)CC)NC(=O)[C@H](CC(C)C)N(C)C(=O)C[C@@H](C(=O)N2CCOCC2)N(C)C(=O)[C@H](C2CCCC2)N(C)C(=O)[C@](C)(COC)NC(=O)[C@@H]2CCCN2C(=O)[C@H](CCc2cc(F)c(C(F)(F)F)c(F)c2)NC(=O)CN(C)C(=O)[C@@H]1Cc1ccc(C(F)(F)F)cc1 [PP0762] ([NMeL]I[Sar][Sar][NPrPhe(4-CF3)][Sar][hPhe(3,5-F2-4-CF3)]P[αMeS](Me)[NMeGly(cPent)][NMeD]-Morpholide; lactam N-11)",B (a compound having 3 or more and less than 10 is denoted as B),B (a compound having 3 or more and less than 10 is denoted as B)
